We go through 26 compounds from US10689377B2 (Mirati Therapeutics, Inc., priority 2017, dated 2020).

Structures are written as SMILES. Where only a bound is given, the exact number is not on record here.

Usually IC50 stands for the concentration at which inhibition is half-maximal.

In this test the target is KRas G12C (Homo sapiens, UniProt P01116, G12C). The test can be described thus: Cellular inhibition of KRas G12C measured by Phospho-ERK in NCI-H358 cells. Format: cell-based. Particulars: pERK(Thr202/Tyr204) normalized with GAPDH, NCI-H358 cells, 3 hours; read-out: IC50. Put shortly: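 Readout is pERK(Thr202/Tyr204) immunofluorescence normalized to GAPDH, expressed as percent of DMSO control and fitted with a 4-parameter curve for IC50. Attached NCI-H358 cells received compound for 3 hours in 0.5% DMSO, followed by fixation and methanol permeabilization.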
Chain of KRas G12C (P01116 1-188 isoform P01116-2 G12C): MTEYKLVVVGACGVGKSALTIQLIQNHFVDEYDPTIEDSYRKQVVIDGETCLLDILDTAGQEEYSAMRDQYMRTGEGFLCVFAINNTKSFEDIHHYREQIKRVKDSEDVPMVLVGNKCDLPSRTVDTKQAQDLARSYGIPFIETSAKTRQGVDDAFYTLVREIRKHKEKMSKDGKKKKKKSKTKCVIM
As to `C=C(F)C(=O)N1CCN(c2nc(OC[C@@H]3CCC(=O)N3C)nc3c2CCN(c2cccc4cccc(C)c24)C3)C[C@@H]1CC#N` [Example 569, 2-[(2S)-1-(2-Fluoroprop-2-enoyl)-4-[7-(8-methyl-1-naphthyl)-2-[[(2S)-1-methyl-5-oxo-pyrrolidin-2-yl]methoxy]-6,8-dihydro-5H-pyrido[3,4-d]pyrimidin-4-yl]piperazin-2-yl]acetonitrile], the IC50 was greater than 1 µM.
Take `C=CC(=O)N1CCN(c2nc(OCCN(C)C)nc3c2CCN(c2cc(O)cc4ccccc24)C3)CC1CO` (centres unmarked) [Example 50, 1-(4-(2-(2-(dimethylamino)ethoxy)-7-(3-hydroxynaphthalen-1-yl)-5,6,7,8-tetrahydropyrido [3,4-d]pyrimidin-4-yl)-2-(hydroxymethyl)piperazin-1-yl)prop-2-en-1-one]: the IC50 was greater than 1 µM.
As for `C=CC(=O)N1CCN(c2nc(OCCCN3C[C@@H]4C[C@H]3CO4)nc3c2CCN(c2cc(O)cc4ccccc24)C3)CC1CC#N` (stereo partly drawn) [Example 153, 2-[4-[7-(3-hydroxy-1-naphthyl)-2-[3-[(1S,4S)-2-oxa-5-azabicyclo[2.2.1]heptan-5-yl]propoxy]-6,8-dihydro-5H-pyrido[3,4-d]pyrimidin-4-yl]-1-prop-2-enoyl-piperazin-2-yl]acetonitrile], the figure is 0.0001 to 1 µM; as for `C=CC(=O)N1CCN(c2nc(O[C@H](C)CN(C)C)nc3c2CCN(c2c(O)ccc(C)c2F)C3)CC1` [Example 84, (R)-1-(4-(2-((1-(dimethylamino)propan-2-yl)oxy)-7-(2-fluoro-6-hydroxy-3-methylphenyl)-5,6,7,8-tetrahydropyrido[3,4-d]pyrimidin-4-yl)piperazin-1-yl)prop-2-en-1-one], greater than 1 µM; as for `C=CC(=O)N1CCN(c2nc(OC[C@@H]3CN(C)CCO3)nc3c2CCN(c2cccc4ccccc24)C3)CC1CC#N` (stereo partly drawn) [Example 271, 2-(1-acryloyl-4-(2-(((S)-4-methylmorpholin-2-yl)methoxy)-7-(naphthalen-1-yl)-5,6,7,8-tetrahydropyrido[3,4-d]pyrimidin-4-yl)piperazin-2-yl)acetonitrile], 0.0001 to 1 µM.
Turning to `CN1CCC[C@H]1COc1nc2c(c(N3CCN(C(=O)C#CCO)[C@@H](CC#N)C3)n1)CCN(c1cccc3ccccc13)C2` [Example 474, 2-((S)-1-(4-hydroxybut-2-ynoyl)-4-(2-(((S)-1-methylpyrrolidin-2-yl)methoxy)-7-(naphthalen-1-yl)-5,6,7,8-tetrahydropyrido[3,4-d]pyrimidin-4-yl)piperazin-2-yl)acetonitrile], the IC50 was in the range of 0.0001 to 1 µM.
The value for `C=C(F)C(=O)N1CCN(c2nc(OC[C@@H]3CC(C)(C)CN3C)nc3c2CCN(c2cccc4cccc(C)c24)C3)C[C@@H]1CC#N` [Example 615, 2-[(2S)-1-(2-fluoroprop-2-enoyl)-4-[7-(8-methyl-1-naphthyl)-2-[[(2S)-1,4,4-trimethylpyrrolidin-2-yl]methoxy]-6,8-dihydro-5H-pyrido[3,4-d]pyrimidin-4-yl]piperazin-2-yl]acetonitrile] was 0.0001 to 1 µM; that for `C=CC(=O)N1CCN(c2nc(OC[C@@H]3CCCN3C)nc3c2CCN(c2c(OC)ccc4[nH]ncc24)C3)CC1` [Example 157] was greater than 1 µM.
As for `C=CC(=O)N1CCN(c2nc(OCCCN3CCCCC3)nc3c2CCN(c2c(C)ccc4[nH]ncc24)C3)CC1` [Example 160, 1-(4-(7-(5-methyl-1H-indazol-4-yl)-2-(3-(piperidin-1-yl)propoxy)-5,6,7,8-tetrahydropyrido[3,4-d]pyrimidin-4-yl)piperazin-1-yl)prop-2-en-1-one], the figure is greater than 1 µM; as for `C=CC(=O)N1CCN(c2nc(OC[C@@H]3CCCN3C)nc3c2CCN(c2ccccc2CC(F)(F)F)C3)CC1CC#N` (stereo partly drawn) [Example 374, 2-(1-acryloyl-4-(2-(((S)-1-methylpyrrolidin-2-yl)methoxy)-7-(2-(2,2,2-trifluoroethyl)phenyl)-5,6,7,8-tetrahydropyrido[3,4-d]pyrimidin-4-yl)piperazin-2-yl)acetonitrile], greater than 1 µM; as for `C=CC(=O)N1CCN(c2nc(OCCCN3CCOCC3)nc3c2CCN(c2cc(O)cc4ccccc24)C3=O)CC1` [Example 121, 4-(4-acryloylpiperazin-1-yl)-7-(3-hydroxynaphthalen-1-yl)-2-(3-morpholinopropoxy)-6,7-dihydropyrido[3,4-d]pyrimidin-8(5H)-one], greater than 1 µM.
The value for `C=CC(=O)N1CCN(c2nc(OC[C@@H]3CCCN3C)nc3c2CCN(c2ccc(F)c4ccccc24)C3)C[C@@H]1CC#N` [Example 316, 2-((S)-1-acryloyl-4-(7-(4-fluoronaphthalen-1-yl)-2-(((S)-1-methylpyrrolidin-2-yl)methoxy)-5,6,7,8-tetrahydropyrido[3,4-d]pyrimidin-4-yl)piperazin-2-yl)acetonitrile] was 0.0001 to 1 µM.
On to `C=CC(=O)N1CCN(c2nc(OCCC(=O)N(C)C)nc3c2CCN(c2cccc4cccc(C)c24)C3)C[C@@H]1CC#N` [Example 371, (S)-3-((4-(4-acryloyl-3-(cyanomethyl)piperazin-1-yl)-7-(8-methylnaphthalen-1-yl)-5,6,7,8-tetrahydropyrido[3,4-d]pyrimidin-2-yl)oxy)-N,N-dimethylpropanamide], for which the IC50 fell in the range of 0.0001 to 1 µM.
The value for `C=CC(=O)N1CCN(c2nc(OC[C@@H]3CCCN3C)nc3c2CCN(c2c(C(F)(F)F)ccc4[nH]ncc24)C3)CC1` [Example 156, (S)-1-(4-(2-((1-methylpyrrolidin-2-yl)methoxy)-7-(5-(trifluoromethyl)-1H-indazol-4-yl)-5,6,7,8-tetrahydropyrido[3,4-d]pyrimidin-4-yl)piperazin-1-yl)prop-2-en-1-one] was 0.0001 to 1 µM; that for `C=CC(=O)N1CCN(c2nc(OCC3CCN(C)C3)nc3c2CCN(c2cc(O)cc4ccccc24)C3)CC1` (centres unmarked) [Example 89, 1-(4-(7-(3-hydroxynaphthalen-1-yl)-2-((1-methylpyrrolidin-3-yl)methoxy)-5,6,7,8-tetrahydropyrido[3,4-d]pyrimidin-4-yl)piperazin-1-yl)prop-2-en-1-one] was 0.0001 to 1 µM; that for `C=CC(=O)N1CCN(c2nc(OC[C@@H]3CCCN3C)nc3c2CCN(c2cccc(OC)c2C(F)(F)F)C3)C[C@@H]1CC#N` [Example 330, 2-[(2S)-4-[7-[3-methoxy-2-(trifluoromethyl)phenyl]-2-[[(2S)-1-methylpyrrolidin-2-yl]methoxy]-6,8-dihydro-5H-pyrido[3,4-d]pyrimidin-4-yl]-1-prop-2-enoyl-piperazin-2-yl]acetonitrile] was 0.0001 to 1 µM.
The value for `C=C(F)C(=O)N1CCN(c2nc(OC[C@@H]3CCCN3C)nc3c2CCN(c2c(C)ncc4ccccc24)C3)C[C@@H]1CC#N` [Example 617] was greater than 1 µM.
Regarding `C=CC(=O)N1CCN(c2nc(OC[C@@H]3CCCN3C)nc3c2CCN(c2cccc4ccc(F)cc24)C3)CC1CC#N` (some centres unmarked) [Example 302], the half-inhibitory concentration (IC50) fell in the range of 0.0001 to 1 µM.
The value for `C=CC(=O)N1CCN(c2nc(OC[C@@H]3COCCN3C)nc3c2CCN(c2cccc4ccccc24)C3)CC1CC#N` (stereo partly drawn) [Example 445, 2-(1-Acryloyl-4-(2-(((S)-4-methylmorpholin-3-yl)methoxy)-7-(naphthalen-1-yl)-5,6,7,8-tetrahydropyrido[3,4-d]pyrimidin-4-yl)piperazin-2-yl)acetonitrile] was 0.0001 to 1 µM; that for `C=CC(=O)N1CCN(c2ncnc3c2CC(C)N(c2cc(O)cc4ccccc24)C3)CC1` (centres unmarked) [Example 6, 1-(4-(7-(3-hydroxynaphthalen-1-yl)-6-methyl-5,6,7,8-tetrahydropyrido[3,4-d]pyrimidin-4-yl)piperazin-1-yl)prop-2-en-1-one] was greater than 1 µM.
On to `C=CC(=O)N1CCN(c2nc(OC[C@@H]3CC(F)(F)CN3C)nc3c2CCN(c2cccc4ccccc24)C3)C[C@@H]1CC#N` [Example 447, 2-((S)-1-Acryloyl-4-(2-(((S)-4,4-difluoro-1-methylpyrrolidin-2-yl)methoxy)-7-(naphthalen-1-yl)-5,6,7,8-tetrahydropyrido[3,4-d]pyrimidin-4-yl)piperazin-2-yl)acetonitrile], for which the half-inhibitory concentration (IC50) was in the range of 0.0001 to 1 µM.
The value for `C=CC(=O)N1CCN(c2nc(OC[C@@H]3CCCN3C)nc3c2CCN(c2cncc(Cl)c2C(F)(F)F)C3)C[C@@H]1CC#N` [Example 385, 2-((S)-1-acryloyl-4-(7-(5-chloro-4-(trifluoromethyl)pyridin-3-yl)-2-(((S)-1-methylpyrrolidin-2-yl)methoxy)-5,6,7,8-tetrahydropyrido[3,4-d]pyrimidin-4-yl)piperazin-2-yl)acetonitrile] was 0.0001 to 1 µM.
As for `C=CC(=O)N1CCN(c2nc(NC[C@@H]3CCCN3C)nc3c2CCN(c2cccc4ccccc24)C3)C[C@@H]1CC#N` [Example 408, 2-((S)-1-acryloyl-4-(2-((((S)-1-methylpyrrolidin-2-yl)methyl)amino)-7-(naphthalen-1-yl)-5,6,7,8-tetrahydropyrido[3,4-d]pyrimidin-4-yl)piperazin-2-yl)acetonitrile], the figure is greater than 1 µM; as for `C=CC(=O)N1CCN(c2nc(OCC3COCCN3C)nc3c2CCN(c2cc(O)cc4ccccc24)C3)CC1` (centres unmarked) [Example 194, 1-(4-(7-(3-hydroxynaphthalen-1-yl)-2-((4-methylmorpholin-3-yl)methoxy)-5,6,7,8-tetrahydropyrido[3,4-d]pyrimidin-4-yl)piperazin-1-yl)prop-2-en-1-one], greater than 1 µM.
Regarding `C=CC(=O)N1CCN(c2nc(N3CCN(CCO)CC3)nc3c2CCN(c2cc(O)cc4ccccc24)C3)CC1` [Example 26, 1-(4-(2-(4-(2-hydroxyethyl)piperazin-1-yl)-7-(3-hydroxynaphthalen-1-yl)-5,6,7,8-tetrahydropyrido[3,4-d]pyrimidin-4-yl)piperazin-1-yl)prop-2-en-1-one], the half-inhibitory concentration (IC50) was greater than 1 µM.
As for `C=CC(=O)N1CCN(c2nc(OC[C@H]3C[C@H](O)CN3C)nc3c2CCN(c2cccc4ccccc24)C3)C[C@@H]1CC#N` [Example 323, 2-[(2S)-4-[2-[[(2R,4S)-4-hydroxy-1-methyl-pyrrolidin-2-yl]methoxy]-7-(1-naphthyl)-6,8-dihydro-5H-pyrido[3,4-d]pyrimidin-4-yl]-1-prop-2-enoyl-piperazin-2-yl]acetonitrile], the figure is 0.0001 to 1 µM.
